{"source": "paper PMC3621832", "about": "“Non-Complexed Four Cascade Enzyme Mixture: Simple Purification and Synergetic Co-stabilization” (PLoS ONE, 2013)", "format_in_all_cases": "biochemical", "key": {"[1]": {"molecular_target": "T1, fructose bisphosphate aldolase (ALD) (Thermotoga maritima, UniProt Q9WYB0)", "T1 construct": "gene TM_0273; heat and ammonium sulfate purification", "T1 sequence (Q9WYB0 1-315)": "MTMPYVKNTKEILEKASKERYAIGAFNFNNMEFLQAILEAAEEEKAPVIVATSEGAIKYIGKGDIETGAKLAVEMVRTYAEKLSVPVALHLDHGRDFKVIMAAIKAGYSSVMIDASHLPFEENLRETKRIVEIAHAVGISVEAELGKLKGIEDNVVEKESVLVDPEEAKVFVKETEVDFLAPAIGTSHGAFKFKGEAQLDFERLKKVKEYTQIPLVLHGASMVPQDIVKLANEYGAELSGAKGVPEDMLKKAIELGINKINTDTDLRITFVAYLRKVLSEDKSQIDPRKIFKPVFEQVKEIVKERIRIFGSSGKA", "assay": "coupled cascade with TIM, FBP and PGI; G6P by enzymatic glucose reagent"}, "[2]": {"molecular_target": "T2, fructose bisphosphatase (FBP) (Thermotoga maritima, UniProt O33832)", "T2 construct": "gene suhB; recombinant, E. coli, plasmid pCIF (CBM-intein-FBP), tag-free after intein self-cleavage", "T2 sequence (O33832 1-256)": "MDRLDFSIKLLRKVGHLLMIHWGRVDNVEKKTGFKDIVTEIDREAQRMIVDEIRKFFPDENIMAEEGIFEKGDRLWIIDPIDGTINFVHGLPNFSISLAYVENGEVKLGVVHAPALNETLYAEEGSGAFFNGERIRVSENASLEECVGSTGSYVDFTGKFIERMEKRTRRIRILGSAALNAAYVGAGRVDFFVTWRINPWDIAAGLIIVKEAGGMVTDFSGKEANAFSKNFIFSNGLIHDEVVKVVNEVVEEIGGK", "assay": "FBP activity assay as described elsewhere; also in four-enzyme cascade"}, "[3]": {"molecular_target": "T3, phosphoglucose isomerase (PGI) (Acetivibrio thermocellus, UniProt A3DBX9)", "T3 construct": "recombinant, E. coli, plasmid pCIP (CBM-intein-PGI), tag-free after intein self-cleavage", "T3 sequence (A3DBX9 1-448)": "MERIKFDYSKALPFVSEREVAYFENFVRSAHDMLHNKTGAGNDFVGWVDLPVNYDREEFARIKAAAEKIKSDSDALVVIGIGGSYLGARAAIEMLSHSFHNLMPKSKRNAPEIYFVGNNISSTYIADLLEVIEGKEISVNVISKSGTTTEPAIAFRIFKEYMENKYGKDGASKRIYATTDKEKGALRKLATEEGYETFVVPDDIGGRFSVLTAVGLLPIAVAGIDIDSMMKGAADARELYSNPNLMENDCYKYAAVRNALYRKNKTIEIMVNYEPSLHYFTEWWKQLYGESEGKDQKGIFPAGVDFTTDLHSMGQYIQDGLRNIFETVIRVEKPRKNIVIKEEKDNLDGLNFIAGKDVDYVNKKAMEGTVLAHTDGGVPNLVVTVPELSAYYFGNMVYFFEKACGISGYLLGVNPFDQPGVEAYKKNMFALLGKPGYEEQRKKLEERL", "assay": "G6P formation by enzymatic glucose kit", "conditions": "100 mM HEPES pH 7.5, 10 mM MgCl2, 0.5 mM MnCl2, 60°C"}}}
{"smiles": "O=C(CO)COP(=O)(O)O", "note": "[dihydroxyacetone phosphate]", "values": [{"measurement": "coupled cascade with TIM, FBP and PGI; G6P by enzymatic glucose reagent", "setting": "[1]; co-substrate G3P", "result": "G3P and DHAP were substrates and F16P was the product"}]}
{"smiles": "O=P(O)(O)OC[C@H]1OC(O)(COP(=O)(O)O)[C@@H](O)[C@@H]1O", "note": "(stereo partly shown) [fructose 1,6-bisphosphate]", "values": [{"measurement": "FBP activity assay as described elsewhere; also in four-enzyme cascade", "setting": "[2]", "result": "FBP catalyses the irreversible conversion of F16P to fructose 6-phosphate (F6P)"}]}
{"smiles": "O=P(O)(O)OC[C@H]1OC(O)(CO)[C@@H](O)[C@@H]1O", "note": "(stereo partly shown) [fructose 6-phosphate]", "values": [{"measurement": "G6P formation by enzymatic glucose kit", "setting": "[3]", "result": "PGI reversibly converts fructose-6-phosphate (F6P) and glucose-6-phosphate (G6P)"}]}
{"smiles": "O=C[C@H](O)COP(=O)(O)O", "note": "[glyceraldehyde-3-phosphate]", "values": [{"measurement": "coupled cascade with TIM, FBP and PGI; G6P by enzymatic glucose reagent", "setting": "[1]; co-substrate DHAP", "result": "G3P and DHAP were substrates and F16P was the product"}]}
